Measurements reported in patent US20240409585A1, “MACROCYCLIC IMMUNOMODULATORS” (priority 2021, published 2024).
Like-named read-outs stand apart in the source and are kept apart here. Bridge positions count the residues as written; N and C are the ends. Square brackets hold non-standard residues; d marks the D form. Peptide text beside a SMILES is read from it. * marks the point of attachment. Bip(4'-COOH) = N[C@@H](Cc1ccc(-c2ccc(C(=O)O)cc2)cc1)C(=O)O; Bip(4'-NHAc) = CC(=O)Nc1ccc(-c2ccc(C[C@H](N)C(=O)O)cc2)cc1; Phe(3-CF3) = N[C@@H](Cc1cccc(C(F)(F)F)c1)C(=O)O; Ala(morpholin-4-yl) = N[C@@H](CN1CCOCC1)C(=O)O; Phe(4-CONH2) = NC(=O)c1ccc(C[C@H](N)C(=O)O)cc1; Phe(4-COOH) = N[C@@H](Cc1ccc(C(=O)O)cc1)C(=O)O; Bip = N[C@@H](Cc1ccc(-c2ccccc2)cc1)C(=O)O; Phe(3-Me) = Cc1cccc(C[C@H](N)C(=O)O)c1; Abu(3S-NH2) = C[C@H](N)[C@H](N)C(=O)O; Val(3-OH) = CC(C)(O)[C@H](N)C(=O)O; Ala(cPr) = N[C@@H](CC1CC1)C(=O)O; hCha = N[C@@H](CCC1CCCCC1)C(=O)O; hPhe = N[C@@H](CCc1ccccc1)C(=O)O; Cha = N[C@@H](CC1CCCCC1)C(=O)O; Carboxymethyl = O=C(O)C*; NMeA = CN[C@@H](C)C(=O)O; Orn = NCCC[C@H](N)C(=O)O; Dab = NCC[C@H](N)C(=O)O; Nva = CCC[C@H](N)C(=O)O

Tests used:
[1] = molecular target: T1, Alexa fluor-647 labeled human PD-L1-Ig binding to Jurkat cell line over-expressing human PD-1 (Homo sapiens, UniProt Q15116); assay: Jurkat-PD-1 Cell Binding High-Content Screening Assay (CBA): Method 3 (Alexa fluor-647 labeled PD-L1-Ig); conditions: Jurkat-PD-1 cells, Alexa fluor-647 labeled PD-L1-Ig 177 nM
T1 construct: expressed in transfected cells; host or cells: Jurkat
Outline: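 Readout by high-content imaging of PFA-fixed, Hoechst-stained cells after 1 h with 177 nM (final) Alexa fluor-647 PD-L1-Ig. Compound was added first to hPD-1 Jurkat cells in RPMI plus 10% FCS for 2 h at 37 °C.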

[2] = molecular target: T2, PD1-PDL1 protein-protein binding interaction [hPD1(25-167)-hIgG, hPD-L1 (19-239)-6xHis] (Homo sapiens, UniProt Q15116); assay: HTRF Assay (TR-FRET); conditions: 5 nM hPD1-hIgG, 5 nM hPD-L1-6xHis, 24 hours at 25° C.
T2 construct: hPD1(25-167)-hIgG, BMS
Protocol: A time-resolved fluorescence resonance energy transfer (TR-FRET) assay was employed to measure the inhibition of the PD1-PDL1 protein-protein binding interaction. The reaction buffer was prepared by mixing the HiBlock buffer and LANCE detection buffer (PerkinElmer, TRF1011F and CR97-100) at a 1:1 ratio. Assay reactions contained 5 nM human programmed cell death 1 [hPD1(25-167)-hIgG, BMS], 5 nM human programmed cell death ligand 1 [hPD-L1 (19-239)-6×His, BMS], in the presence of 1 nM LANCE Eu-W1024 Anti-Human IgG (Eu-anti hIgG, PerkinElmer, AD0074) and 20 nM SureLight Allophycocyanin-anti-6×His antibody (APC-anti-6×His, PerkinElmer, AD0059H). Test compounds were evaluated in a 10-point dose-response format with serial three-fold dilutions starting from a 2 uM top concentration. Reactions were carried out in a total volume of 10 uL in 384-well microtiter plates (Proxiplate white, PerkinElmer, 6008289). Plates were sealed and incubated for 24 hours at 25° C. After 24 hours, the TR-FRET signal was measured using a PerkinElmer EnVision multimode plate reader and the resulting ratiometric data set (signal at 665 nm/615 nm, multiplied by a factor of 10,000) was recorded. The concentration giving half-maximal inhibition (the IC50) was obtained by fitting the data to a four-parameter logistic equation using Graphpad Prism or Dotmatics.

[3] = head μM, read-out: CBA Method 3 μM

T1 sequence (Q15116 25-288): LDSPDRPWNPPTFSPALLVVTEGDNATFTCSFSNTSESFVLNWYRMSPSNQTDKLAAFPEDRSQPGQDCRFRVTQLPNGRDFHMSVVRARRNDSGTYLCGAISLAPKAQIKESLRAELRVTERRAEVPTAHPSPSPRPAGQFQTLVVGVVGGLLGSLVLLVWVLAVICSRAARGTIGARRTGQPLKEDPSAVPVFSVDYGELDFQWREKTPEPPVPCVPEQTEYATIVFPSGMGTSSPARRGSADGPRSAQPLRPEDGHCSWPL
T2 sequence (Q15116 25-167): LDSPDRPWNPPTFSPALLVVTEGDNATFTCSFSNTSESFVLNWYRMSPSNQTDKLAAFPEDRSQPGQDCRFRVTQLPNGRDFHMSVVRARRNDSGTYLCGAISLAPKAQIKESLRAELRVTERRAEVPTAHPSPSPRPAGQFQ

IC50 [1, 3] [µM]	IC50 ([2]; head μM) [µM]	IC50 ([1]; nM, read-out: CBA Method 3) [µM]	IC50 ([2]; nM) [µM]	Structure (SMILES)
0.02	0.07	–	–	CC(=O)Nc1ccc(-c2ccc(C[C@@H]3NC(=O)CSC[C@@H](C(=O)N[C@@H](CCN)C(N)=O)NC(=O)[C@H](CCCN)NC(=O)[C@H](C(C)C)NC(=O)[C@H](CC4CCCCC4)NC(=O)[C@H](CCN)NC(=O)[C@@H](CC(C)C)NC(=O)[C@H](C)N(C)C(=O)[C@H](CCC(N)=O)NC(=O)[C@H](Cc4ccc(-c5ccccc5)cc4)NC(=O)[C@H](Cc4ccc(C(=O)O)cc4)NC(=O)[C@H](Cc4cccc(C)c4)NC(=O)[C@H](CC(=O)O)NC(=O)[C@H](Cc4ccc(OCC(=O)O)cc4)NC3=O)cc2)cc1 [Example 5173] ({CH2CO}-[Bip(4'-NHAc)]Y(Carboxymethyl)D[Phe(3-Me)][Phe(4-COOH)][Bip]Q[NMeA][dL][Dab][Cha]V[Orn]C[Dab]-NH2; thioether N-14)
–	0.03	0.0076	–	Cc1cccc(C[C@@H]2NC(=O)[C@H](CC(=O)O)NC(=O)[C@H](Cc3ccc(OCC(=O)O)cc3)NC(=O)[C@H](Cc3ccc(-c4ccc(C(=O)O)cc4)cc3)NC(=O)CSC[C@@H](C(=O)N[C@@H](CCN)C(N)=O)NC(=O)[C@H](CCCN)NC(=O)[C@H](C(C)C)NC(=O)[C@H](CC3CCCCC3)NC(=O)[C@H](CCN)NC(=O)[C@@H](CC(C)C)NC(=O)[C@H](C)N(C)C(=O)[C@H](CCC(N)=O)NC(=O)[C@H](Cc3ccc(-c4ccccc4)cc3)NC(=O)[C@H](Cc3ccc(C(=O)O)cc3)NC2=O)c1 [Example 5177] ({CH2CO}-[Bip(4'-COOH)]Y(Carboxymethyl)D[Phe(3-Me)][Phe(4-COOH)][Bip]Q[NMeA][dL][Dab][Cha]V[Orn]C[Dab]-NH2; thioether N-14)
–	0.01	0.0023	–	Cc1cccc(C[C@@H]2NC(=O)[C@H](CC(=O)O)NC(=O)[C@H](Cc3ccc(OCC(=O)O)cc3)NC(=O)[C@H](CC3CC3)NC(=O)CSC[C@@H](C(=O)N[C@@H](CCN)C(N)=O)NC(=O)[C@H](CCCN)NC(=O)[C@H](C(C)C)NC(=O)[C@H](CC3CCCCC3)NC(=O)[C@H](CCN)NC(=O)[C@@H](CC(C)C)NC(=O)[C@H](C)N(C)C(=O)[C@H](CCC(N)=O)NC(=O)[C@H](Cc3ccc(-c4ccccc4)cc3)NC(=O)[C@H](Cc3ccc(C(=O)O)cc3)NC2=O)c1 [Example 5185] ({CH2CO}-[Ala(cPr)]Y(Carboxymethyl)D[Phe(3-Me)][Phe(4-COOH)][Bip]Q[NMeA][dL][Dab][Cha]V[Orn]C[Dab]-NH2; thioether N-14)
–	0.03	0.0045	–	Cc1cccc(C[C@@H]2NC(=O)[C@H](CC(=O)O)NC(=O)[C@H](Cc3ccc(OCC(=O)O)cc3)NC(=O)[C@H](CCC3CCCCC3)NC(=O)CSC[C@@H](C(=O)N[C@@H](CCN)C(N)=O)NC(=O)[C@H](CCCN)NC(=O)[C@H](C(C)C)NC(=O)[C@H](CC3CCCCC3)NC(=O)[C@H](CCN)NC(=O)[C@@H](CC(C)C)NC(=O)[C@H](C)N(C)C(=O)[C@H](CCC(N)=O)NC(=O)[C@H](Cc3ccc(-c4ccccc4)cc3)NC(=O)[C@H](Cc3ccc(C(=O)O)cc3)NC2=O)c1 [Example 5186] ({CH2CO}-[hCha]Y(Carboxymethyl)D[Phe(3-Me)][Phe(4-COOH)][Bip]Q[NMeA][dL][Dab][Cha]V[Orn]C[Dab]-NH2; thioether N-14)
0.01	0.05	–	–	CC(C)C[C@H]1NC(=O)[C@H](C)N(C)C(=O)[C@H](Cc2ccc(C(N)=O)cc2)NC(=O)[C@H](Cc2ccc(-c3ccccc3)cc2)NC(=O)[C@H](CCc2ccccc2)NC(=O)[C@H](Cc2cccc(C(F)(F)F)c2)NC(=O)[C@H](CC(=O)O)NC(=O)[C@H](Cc2ccc(C(=O)O)cc2)NC(=O)[C@H]([C@H](C)N)NC(=O)CSC[C@@H](C(=O)N[C@@H](CCN)C(N)=O)NC(=O)[C@H](CCC(N)=O)NC(=O)[C@H](C(C)(C)O)NC(=O)[C@H](CC2CCCCC2)NC(=O)[C@H](CCN)NC1=O [Example 5206] ({CH2CO}-[Abu(3S-NH2)][Phe(4-COOH)]D[Phe(3-CF3)][hPhe][Bip][Phe(4-CONH2)][NMeA][dL][Dab][Cha][Val(3-OH)]QC[Dab]-NH2; thioether N-14)
0.01	0.04	–	–	CC(C)C[C@H]1NC(=O)[C@H](C)N(C)C(=O)[C@H](CCC(N)=O)NC(=O)[C@H](Cc2ccc(-c3ccccc3)cc2)NC(=O)[C@H](CCc2ccccc2)NC(=O)[C@H](Cc2cccc(C(F)(F)F)c2)NC(=O)[C@H](CC(=O)O)NC(=O)[C@H](Cc2ccc(OCC(=O)O)cc2)NC(=O)[C@H](CN2CCOCC2)NC(=O)CSC[C@@H](C(=O)N[C@@H](CCN)C(N)=O)NC(=O)[C@H](CCC(=O)O)NC(=O)[C@H](C(C)C)NC(=O)[C@H](CC2CCCCC2)NC(=O)[C@H](CCN)NC1=O [Example 5211] ({CH2CO}-[Ala(morpholin-4-yl)]Y(Carboxymethyl)D[Phe(3-CF3)][hPhe][Bip]Q[NMeA][dL][Dab][Cha]VEC[Dab]-NH2; thioether N-14)
–	0.02	0.0039	–	Cc1cccc(C[C@@H]2NC(=O)[C@H](CC(=O)O)NC(=O)[C@H](Cc3ccc(OCC(=O)O)cc3)NC(=O)[C@H](CN3CCOCC3)NC(=O)CSC[C@@H](C(=O)N[C@@H](CCN)C(N)=O)NC(=O)[C@H](CCC(=O)O)NC(=O)[C@H](C(C)C)NC(=O)[C@H](CC3CCCCC3)NC(=O)[C@H](CCN)NC(=O)[C@@H](CC(C)C)NC(=O)[C@H](C)N(C)C(=O)[C@H](CCC(N)=O)NC(=O)[C@H](Cc3ccc(-c4ccccc4)cc3)NC(=O)[C@H](CCc3ccccc3)NC2=O)c1 [Example 5212] ({CH2CO}-[Ala(morpholin-4-yl)]Y(Carboxymethyl)D[Phe(3-Me)][hPhe][Bip]Q[NMeA][dL][Dab][Cha]VEC[Dab]-NH2; thioether N-14)
–	0.01	0.003	–	Cc1cccc(C[C@@H]2NC(=O)[C@H](CC(=O)O)NC(=O)[C@H](Cc3ccc(OCC(=O)O)cc3)NC(=O)[C@H](CN3CCOCC3)NC(=O)CSC[C@@H](C(=O)N[C@@H](CCN)C(N)=O)NC(=O)[C@H](CCC(N)=O)NC(=O)[C@H](C(C)C)NC(=O)[C@H](CC3CCCCC3)NC(=O)[C@H](CCN)NC(=O)[C@@H](CC(C)C)NC(=O)[C@H](C)N(C)C(=O)[C@H](CCC(N)=O)NC(=O)[C@H](Cc3ccc(-c4ccccc4)cc3)NC(=O)[C@H](CCc3ccccc3)NC2=O)c1 [Example 5221] ({CH2CO}-[Ala(morpholin-4-yl)]Y(Carboxymethyl)D[Phe(3-Me)][hPhe][Bip]Q[NMeA][dL][Dab][Cha]VQC[Dab]-NH2; thioether N-14)
–	–	–	0.0023	CCC[C@@H]1NC(=O)CSC[C@@H](C(=O)N[C@@H](CCN)C(N)=O)NC(=O)[C@H](CCCN)NC(=O)[C@H](C(C)C)NC(=O)[C@H](CC2CCCCC2)NC(=O)[C@H](CCN)NC(=O)[C@@H](CC(C)C)NC(=O)[C@H](C)N(C)C(=O)[C@H](CCC(N)=O)NC(=O)[C@H](Cc2ccc(-c3ccccc3)cc2)NC(=O)[C@H](Cc2ccc(C(=O)O)cc2)NC(=O)[C@H](Cc2cccc(C)c2)NC(=O)[C@H](CC(=O)O)NC(=O)[C@H](Cc2ccc(OCC(=O)O)cc2)NC1=O [Example 5297] ({CH2CO}-[Nva]Y(Carboxymethyl)D[Phe(3-Me)][Phe(4-COOH)][Bip]Q[NMeA][dL][Dab][Cha]V[Orn]C[Dab]-NH2; thioether N-14)
